ChEMBL document CHEMBL1909046, “DrugMatrix in vitro pharmacology data”

Assays:
Cytochrome P450 2D6 = Cytochrome P450 2D6 (Homo sapiens, UniProt P10635); details: bti-tn-5b1-4; note: in other assays of this panel Not Active means under 50% inhibition at 10 µM
[1] = DRUGMATRIX: Potassium Channel [KATP] radioligand binding (ligand: [3H] Glyburide); type: cell membranes, Membrane; details: hit-t15; Not Active = under 50% inhibition at 10 µM
[2] = target: T1, Alpha-1A adrenergic receptor (Rattus norvegicus, UniProt P43140); test: DRUGMATRIX: Alpha-1A adrenergic receptor radioligand binding (ligand: prazosin); type: cell membranes, Wistar, Submaxillary gland, Membrane; details: Not Active = under 50% inhibition at 10 µM; for Ki: read-out: Ki
T1 sequence (P43140 whole entry): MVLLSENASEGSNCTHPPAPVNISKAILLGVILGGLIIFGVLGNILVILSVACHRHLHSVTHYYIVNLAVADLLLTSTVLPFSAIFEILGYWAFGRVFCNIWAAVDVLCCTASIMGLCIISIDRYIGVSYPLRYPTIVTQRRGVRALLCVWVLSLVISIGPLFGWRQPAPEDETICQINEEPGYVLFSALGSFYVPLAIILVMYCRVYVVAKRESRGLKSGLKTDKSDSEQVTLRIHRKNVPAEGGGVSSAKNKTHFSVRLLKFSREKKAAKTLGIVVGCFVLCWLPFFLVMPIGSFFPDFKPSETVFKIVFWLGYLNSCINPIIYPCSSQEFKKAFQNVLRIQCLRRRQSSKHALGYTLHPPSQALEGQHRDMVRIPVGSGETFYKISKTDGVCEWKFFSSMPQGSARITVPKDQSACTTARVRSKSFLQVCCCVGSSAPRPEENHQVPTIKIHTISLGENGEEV

[3] = target: Vascular endothelial growth factor receptor 1 (Homo sapiens, UniProt P17948); type: cell-based; details: huvec; note: in other assays of this panel Not Active means under 50% inhibition at 10 µM
[4] = target: Sigma non-opioid intracellular receptor 1 (Homo sapiens, UniProt Q99720); test: DRUGMATRIX: Sigma1 radioligand binding (ligand: [3H] Haloperidol); type: cell membranes, Jurkat, Membrane; details: jurkat; Not Active = under 50% inhibition at 10 µM
[5] = target: T2, Muscarinic acetylcholine receptor M4 (Homo sapiens, UniProt P08173); type: cell membranes, CHO-K1, Membrane; details: cho-k1; note: in other assays of this panel Not Active means under 50% inhibition at 10 µM
T2 sequence (P08173 whole entry): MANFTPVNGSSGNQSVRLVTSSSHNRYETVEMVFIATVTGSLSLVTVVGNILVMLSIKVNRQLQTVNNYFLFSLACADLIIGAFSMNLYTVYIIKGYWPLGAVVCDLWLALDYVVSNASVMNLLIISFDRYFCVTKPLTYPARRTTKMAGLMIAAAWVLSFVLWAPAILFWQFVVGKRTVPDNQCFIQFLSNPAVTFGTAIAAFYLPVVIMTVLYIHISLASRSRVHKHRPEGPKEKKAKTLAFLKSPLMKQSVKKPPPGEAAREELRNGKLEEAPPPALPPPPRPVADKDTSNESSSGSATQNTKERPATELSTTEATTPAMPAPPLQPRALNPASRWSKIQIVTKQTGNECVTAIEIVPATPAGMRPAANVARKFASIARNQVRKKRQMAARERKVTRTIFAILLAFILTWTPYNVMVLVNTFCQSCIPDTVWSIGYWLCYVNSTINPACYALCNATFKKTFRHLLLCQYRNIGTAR

[6] = target: Delta-type opioid receptor (Homo sapiens, UniProt P41143); type: cell membranes, HEK293, Membrane; details: hek293; note: in other assays of this panel Not Active means under 50% inhibition at 10 µM
Delta-type opioid receptor, sequence (P41143 whole entry): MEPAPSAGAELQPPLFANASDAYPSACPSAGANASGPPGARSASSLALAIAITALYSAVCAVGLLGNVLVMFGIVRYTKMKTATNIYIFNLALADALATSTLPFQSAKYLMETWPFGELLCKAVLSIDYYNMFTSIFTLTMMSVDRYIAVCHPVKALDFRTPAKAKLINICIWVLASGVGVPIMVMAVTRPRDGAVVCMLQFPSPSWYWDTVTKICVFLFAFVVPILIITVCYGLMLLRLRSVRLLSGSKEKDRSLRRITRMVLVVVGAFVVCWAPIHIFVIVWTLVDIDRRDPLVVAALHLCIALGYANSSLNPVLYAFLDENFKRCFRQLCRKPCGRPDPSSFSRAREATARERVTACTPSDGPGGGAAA

Sigma non-opioid intracellular receptor 1, sequence (Q99720 whole entry): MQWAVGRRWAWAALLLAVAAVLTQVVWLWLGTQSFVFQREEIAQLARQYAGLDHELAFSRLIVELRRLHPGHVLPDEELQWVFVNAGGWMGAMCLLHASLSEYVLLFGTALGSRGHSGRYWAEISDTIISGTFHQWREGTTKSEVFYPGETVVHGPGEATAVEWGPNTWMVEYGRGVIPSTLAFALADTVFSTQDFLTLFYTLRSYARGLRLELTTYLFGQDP
Cytochrome P450 2D6, sequence (P10635 whole entry): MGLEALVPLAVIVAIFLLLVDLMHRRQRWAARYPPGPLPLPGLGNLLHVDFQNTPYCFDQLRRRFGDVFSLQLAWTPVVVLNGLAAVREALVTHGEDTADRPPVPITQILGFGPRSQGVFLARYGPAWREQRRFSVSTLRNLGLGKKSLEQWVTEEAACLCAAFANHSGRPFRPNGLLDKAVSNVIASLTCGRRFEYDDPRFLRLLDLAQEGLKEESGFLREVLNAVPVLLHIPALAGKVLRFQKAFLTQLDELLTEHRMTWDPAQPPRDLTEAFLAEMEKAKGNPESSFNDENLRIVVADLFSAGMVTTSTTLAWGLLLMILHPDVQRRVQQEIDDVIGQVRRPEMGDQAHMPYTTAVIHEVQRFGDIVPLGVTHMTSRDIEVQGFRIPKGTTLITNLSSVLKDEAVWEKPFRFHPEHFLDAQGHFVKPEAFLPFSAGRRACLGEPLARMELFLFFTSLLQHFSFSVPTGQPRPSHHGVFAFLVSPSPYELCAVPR
Vascular endothelial growth factor receptor 1, sequence (P17948 whole entry): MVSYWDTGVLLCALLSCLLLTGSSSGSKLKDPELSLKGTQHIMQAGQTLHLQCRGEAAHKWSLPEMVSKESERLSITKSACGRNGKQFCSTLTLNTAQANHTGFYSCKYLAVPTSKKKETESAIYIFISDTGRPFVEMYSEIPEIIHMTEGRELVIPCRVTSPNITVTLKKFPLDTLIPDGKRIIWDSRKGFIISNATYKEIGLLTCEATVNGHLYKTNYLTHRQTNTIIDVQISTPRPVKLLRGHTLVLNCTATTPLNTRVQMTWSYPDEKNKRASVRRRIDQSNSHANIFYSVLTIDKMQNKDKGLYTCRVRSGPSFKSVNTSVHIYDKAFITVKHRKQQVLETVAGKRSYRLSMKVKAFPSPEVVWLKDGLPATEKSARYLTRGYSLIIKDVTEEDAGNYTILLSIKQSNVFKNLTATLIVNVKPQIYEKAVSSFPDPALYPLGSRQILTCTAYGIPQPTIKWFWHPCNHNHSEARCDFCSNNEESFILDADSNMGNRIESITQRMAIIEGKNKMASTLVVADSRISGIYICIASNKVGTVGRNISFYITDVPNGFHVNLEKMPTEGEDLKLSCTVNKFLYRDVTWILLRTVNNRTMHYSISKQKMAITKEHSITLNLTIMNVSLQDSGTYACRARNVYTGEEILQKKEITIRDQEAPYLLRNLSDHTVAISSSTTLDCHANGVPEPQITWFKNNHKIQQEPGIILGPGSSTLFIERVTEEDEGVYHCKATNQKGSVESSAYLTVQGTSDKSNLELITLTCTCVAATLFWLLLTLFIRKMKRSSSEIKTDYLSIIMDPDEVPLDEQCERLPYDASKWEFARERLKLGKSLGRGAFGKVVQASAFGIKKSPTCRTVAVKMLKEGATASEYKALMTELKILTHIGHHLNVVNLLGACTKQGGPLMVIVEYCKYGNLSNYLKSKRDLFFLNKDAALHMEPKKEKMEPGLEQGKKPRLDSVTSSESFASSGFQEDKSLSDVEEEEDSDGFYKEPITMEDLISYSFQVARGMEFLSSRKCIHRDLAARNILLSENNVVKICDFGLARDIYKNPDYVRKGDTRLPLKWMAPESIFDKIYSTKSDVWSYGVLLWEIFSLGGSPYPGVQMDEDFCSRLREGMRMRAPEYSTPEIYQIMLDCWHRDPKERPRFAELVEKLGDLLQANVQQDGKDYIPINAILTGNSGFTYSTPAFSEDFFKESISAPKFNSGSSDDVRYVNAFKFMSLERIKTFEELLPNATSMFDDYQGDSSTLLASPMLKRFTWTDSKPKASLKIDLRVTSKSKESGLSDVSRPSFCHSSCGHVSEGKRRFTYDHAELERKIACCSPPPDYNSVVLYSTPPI

Structure (SMILES)	IC50 (Cytochrome P450 2D6)	Ki (Cytochrome P450 2D6)	IC50 [1]	Ki [1]	IC50 ([2]; read-out: IC50)	Ki [2]	IC50 [3]	IC50 [4]	IC50 [5]	IC50 [6]	IC50 [2]
CC(C)[C@@]1(NC(=O)[C@@H]2C[C@@H]3c4cccc5[nH]cc(c45)C[C@H]3N(C)C2)O[C@@]2(O)[C@@H]3CCCN3C(=O)[C@H](Cc3ccccc3)N2C1=O.CS(=O)(=O)O [DIHYDROERGOCRISTINE MESYLATE]	Not Active	Not Active	Not Active	Not Active	1.62 nM	0.656 nM	Not Active	Not Active	Not Active	Not Active	
CC(=O)O[C@@]12CO[C@@H]1C[C@H](O)[C@@]1(C)C(=O)[C@H](O)C3=C(C)[C@@H](OC(=O)[C@H](O)[C@@H](NC(=O)OC(C)(C)C)c4ccccc4)C[C@@](O)([C@@H](OC(=O)c4ccccc4)[C@H]21)C3(C)C.O.O.O [DOCETAXEL]	Not Active	Not Active	Not Active	Not Active			Not Active	Not Active	Not Active	Not Active	Not Active
COc1cc2nc(N3CCN(C(=O)C4COc5ccccc5O4)CC3)nc(N)c2cc1OC (stereo unspecified) [DOXAZOSIN]	Not Active	Not Active	Not Active	Not Active	1.55 nM	0.628 nM	Not Active	Not Active	Not Active	Not Active	
C[C@H]1c2cccc(O)c2C(=O)C2=C(O)[C@]3(O)C(=O)C(C(N)=O)=C(O)[C@@H](N(C)C)[C@@H]3[C@@H](O)[C@@H]21.O [DOXYCYCLINE]	Not Active	Not Active	Not Active	Not Active			Not Active	Not Active	Not Active	Not Active	Not Active
CC(C)[C@H]1C(=O)N2CCC[C@H]2[C@]2(O)O[C@](NC(=O)[C@@H]3C=C4c5cccc6[nH]cc(c56)C[C@H]4N(C)C3)(C(C)C)C(=O)N12 [ERGOCORNINE]	Not Active	Not Active	Not Active	Not Active	11 nM	4.47 nM	Not Active	Not Active	Not Active	Not Active	
OC(Cn1cncn1)(Cn1cncn1)c1ccc(F)cc1F [FLUCONAZOLE]	Not Active	Not Active	Not Active	Not Active			Not Active	Not Active	Not Active	Not Active	Not Active
CC(C)C(=O)Nc1ccc([N+](=O)[O-])c(C(F)(F)F)c1 [FLUTAMIDE]	Not Active	Not Active	Not Active	Not Active			Not Active	Not Active	Not Active	Not Active	Not Active
CC1(C)O[C@@H]2C[C@H]3[C@@H]4CCC5=CC(=O)CC[C@]5(C)[C@@]4(F)[C@@H](O)C[C@]3(C)[C@]2(C(=O)CCl)O1 [HALCINONIDE]	Not Active	Not Active	Not Active	Not Active			Not Active	Not Active	Not Active	Not Active	Not Active
O=c1[nH]c(=O)n([C@H]2C[C@H](O)[C@@H](CO)O2)cc1I [IDOXURIDINE]	Not Active	Not Active	Not Active	Not Active			Not Active	Not Active	Not Active	Not Active	Not Active
CC1Cc2ccccc2N1NC(=O)c1ccc(Cl)c(S(N)(=O)=O)c1 (stereo unspecified) [INDAPAMIDE]	Not Active	Not Active	Not Active	Not Active			Not Active	Not Active	Not Active	Not Active	Not Active
Nc1nc(N)nc(-c2cc(Cl)ccc2Cl)n1.O=C(O)/C=C\C(=O)O [IRSOGLADINE MALEATE]	Not Active	Not Active	Not Active	Not Active			Not Active	Not Active	Not Active	Not Active	Not Active
CCC(C)n1ncn(-c2ccc(N3CCN(c4ccc(OCC5COC(Cn6cncn6)(c6ccc(Cl)cc6Cl)O5)cc4)CC3)cc2)c1=O (stereo unspecified) [ITRACONAZOLE]	Not Active	Not Active	Not Active	Not Active			Not Active	Not Active	Not Active	Not Active	Not Active
